These results are taken from patent EP0183439B1, “Polycyclic compounds, their preparation and use and formulations containing them” (THE WELLCOME FOUNDATION LIMITED, priority 1984, dated 1986).

Counter-ions that a name gives are not always drawn.

For one series, the system named is P388/0 tumor cells. Kind of series: Lymphocytic Leukemia P388/0 Test. It is filed as in vivo, CD2-F₁ mice. To be noted: ratio of median survival time treated/control at optimal dose; i.p. days 1, 5, 9; 10⁶ P388/0 cells i.p. on day 0. The source says: Methods for evaluating the antitumor activity of these compounds are essentially those used in the Tumor Panel by the Development Therapeutics Program, Division of Cancer Treatment, National Cancer Institute, A. Goldin, et al., Methods in Cancer Research, Vol. XVI, p. 165, Academic Press (1979). Some modifications, in dose level and schedule have been made to increase the testing efficiency.
(§1) CD2-F₁ mice, of the same sex, weighing within a 3 g range surrounding 20 g, are used for this test. Control and test animals are injected intraperitoneally with a suspension of 10⁶ viable P388/0 tumor cells on day 0. In each test several dose levels which bracket the LD₂₀ for the compound are evaluated; each dose level group contains 6 animals. The test compounds are prepared either in physiologic saline containing 0.05% Tween 80 or distilled water containing 5% dextrose and are administered intraperitoneally on days, 1, 5, and 9 relative to tumor implant.
Doses are on a mg/kg basis according to individual animals' body weights. The day of death for each animal is recorded, the median identified for each group and the ratios of median survival time for treated (T)/control (C) groups are calculated. The criterion for activity is T/C x 100 120%.

Series [1] can be described thus: LD20 in the P388/0 test (toxicity in mice). It is filed as in vivo. On the procedure: as §1
[2] abbreviates: intraperitoneally on days 1, 5 and 9.

As for `CC(CO)(CO)NCc1cccc2sc3ccccc3c12` [Example 1, 2-[(1-Dibenzothiophenylmethyl)amino]-2-methyl-1,3-propanediol hydrochloride], the “T/C x 100% (Exluding 30 Day Survivors)” value in the series with P388/0 tumor cells is recorded as “+140%”. The same compound came in with an LD₂₀ in series [1] (mouse, in vivo, ip) of 240 mg/kg.

Turning to `CC(CO)(CO)NCc1cccc2oc3ccccc3c12` [Example 4B, 2-[(1-Dibenzofuranylmethyl)amino]-2-methyl-1,3-propanediol hydrochloride], in the series with P388/0 tumor cells, the “T/C x 100% (Exluding 30 Day Survivors)” value is reported as “+140%”. Besides, the LD₂₀ in series [1] (setting [2]) worked out at 200 mg/kg.

Turning to `CC(CO)(CO)NCc1c2ccccc2nc2ccccc12` [Example 13, 2-[(9-Acridinylmethyl)amino]-2-methyl-1,3-propanediol dihydochoride], in the series on P388/0 tumor cells, the “T/C x 100% (Exluding 30 Day Survivors)” value was “+130%”. The LD₂₀ in series [1] (mouse, in vivo, ip) is listed as 540 mg/kg.

Regarding `CC(CO)(CO)NCc1ccc2sc3ccccc3c2c1.Cl` [Example 2, 2-[(2-Dibenzothiophenylmethyl)amino]-2-methyl-1,3-propanediol hydrochloride], the “T/C x 100% (Exluding 30 Day Survivors)” value in the series with P388/0 tumor cells is “+130%”. Also, the LD₂₀ in series [1] (setting [2]) amounted to 200 mg/kg.

Regarding `CC(CO)(CO)NCc1c2ccccc2cc2sccc12` [Example 6B, 2-[(Naphtho[2,3-b]thiophen-4-ylmethyl)amino]-2-methyl-1,3-propanediol hydrochloride 1/20 hydrate], the “T/C x 100% (Exluding 30 Day Survivors)” value with P388/0 tumor cells is “+125%”. The LD₂₀ in series [1] (mouse, in vivo, ip) came out at 150 mg/kg.

Turning to `CC(CO)(CO)NCc1ccc2oc3ccccc3c2c1.Cl` [Example 5, 2-[(2-Dibenzofuranylmethyl)amino]-2-methyl-1,3-propanediol hydrochloride], the “T/C x 100% (Exluding 30 Day Survivors)” value in the series on P388/0 tumor cells is on record as “+120%”. In series [1] (setting [2]), the LD₂₀ is 225 mg/kg.

Consider `CC(CO)(CO)NCc1cc2ccsc2c2ccccc12` [Example 10C, 2-Methyl-2-[(naphtho[1,2-b]thiophene-5-ylmethyl)amino]-1,3-propanediol], for which the “T/C x 100% (Exluding 30 Day Survivors)” value in the series on P388/0 tumor cells was “+125%”. This compound yielded an LD₂₀ in series [1] (setting [2]) of 115 mg/kg.

`CC(CO)(CO)NCc1cccc2c1sc1ccccc12.Cl` [Example 3, 2-[(4-Dibenzothiophenylmethyl)amino]-2-methyl-1,3-propanediol hydrochloride]: the “T/C x 100% (Exluding 30 Day Survivors)” value in the series on P388/0 tumor cells is on record as “+155%”. In series [1] (setting [2]), the LD₂₀ is 200 mg/kg.
